Test results as given in article PMC12564302, “Discovery of N-Hydroxypyridinedione-Based Inhibitors of HBV RNase H: Design, Synthesis, and Extended SAR Studies” (International Journal of Molecular Sciences, 2025).
≈ marks a conversion by molar mass, not a printed value. Where two headings read alike, the source gives them in different places.

Assays:
[1] = test system: HBV replication in HepDES19 cells; conditions: cited from earlier work
HepDES19 cells = conditions: cited from earlier work
[2] = test system: HBV replication in HepDES19 cells; assay: qPCR HBV replication inhibition assay; type: cell-based, HBV genotype D; conditions: Hepatitis B virus, HepDES19, 72 h
Procedure: (§1) HepDES19 cells are a HepG2 cell-line derivative that has been stably transfected with an HBV genotype D genome containing a tetracycline repressible promoter. HepDES19 cells were maintained on collagen-coated plates in Dulbecco’s modified Eagle’s medium (DMEM/F12) (Cytiva Life Sciences, Marlborough, MA, USA) supplemented with 10% fetal bovine serum (FBS), streptomycin (100 µg/mL), and penicillin (100 IU/mL), and incubated at 37 °C with 5% CO2 and saturating humidity. Cells were cultured with 1 µg/mL tetracycline to inhibit the expression of the stably integrated HBV genome, and HBV replication was activated upon removal of tetracycline from the culture medium.
HBV replication inhibition in HepDES19 cells was assessed using a strand-preferential quantitative PCR assay as previously described. HepDES19 cells were seeded in 96 well plates at 4 × 10^4 cells/well for 48 h followed by the addition of serial diluted compound with a final concentration of 1% DMSO for 72 h, after which cells were lysed, and qPCR was performed as described in Li et al.. Effective concentration 50% (EC50) values were calculated from data for the (+) polarity DNA strand data using GraphPad Prism version 10’s four-parameter log (inhibitor) versus response algorithm, with the bottom value set to zero. Three or more replicate assays were performed on different days.

MTS cytotoxicity assay = type: cell-based; conditions: human, HepDES19 cells, pH 7.4
Procedure: as §1
Cell viability was assessed using the CellTiter 96^TM Aqueous Non-Radioactive Cell Proliferation assay (MTS) (Promega, Madison, WI, USA) as described previously. HepDES19 cells were seeded in 96 well plates at 1 × 10^4 cells/well for 48 h. Cells were then incubated with serial diluted compound, with a final concentration of 1% DMSO, for 72 h. Following compound incubation, background absorbance values were subtracted, and the data were converted into percent cell viability. The cytotoxic concentration 50% (CC50) values were calculated using GraphPad Prism’s four-parameter log (inhibitor) versus response algorithm, with the bottom value set to zero. Three or more replicate assays were performed on different days.

Solubility limit assay = type: physicochemical; conditions: DMEM-F12 without phenol red with 10% FBS, pH 7.4, plasma or biological fluid, kinetic from dmso stock
Procedure: Solubility limits of compounds were tested as previously reported in DMEM-F12 without phenol red (Gibco, Grand Island, NY, USA) but with the media supplemented with 10% FBS (pH 7.4) to mimic cell culture experiments. In a 384-well optically clear plate, compounds were serially diluted in pH 7.4 buffer (upper limit 200 µM, DMSO 1%) then read at 620 nm. Solubility limits were determined by plotting compound concentration (µM) against optical density (OD) and identifying an inflexion point. The inflexion point is defined by a substantial increase in OD brought on by increasing turbidity, and the compound concentration at this point is known as the solubility limit. Each compound had at least two replicate assays performed on different days.

[3] = Parallel artificial membrane permeability assay; type: in vitro ADME; conditions: PAMPA, pH 7.4, PAMPA
Procedure: The evaluation of apparent passive permeability (Papp) at pH 7.4 was performed using a donor/acceptor cassette (Innovative Laboratory Products, Phoenix, AZ, USA and Sigma Aldrich, Burlington, MA, USA), which simulates the apical and basolateral sides of the small intestine epithelium, as previously described. An artificial membrane made of 1% w/v lecithin/dodecane was applied to the poly (vinylidene fluoride) (PVDF) membrane filter and allowed to dry. Following drying, compounds (200 µM) were diluted in buffer at pH 7.4 and added to the donor side of the cassette. The same pH buffer was added on the acceptor side of the cassette, after which it was assembled and incubated at room temperature with shaking at 250 rpm for 2 h, before reading the absorbance of 100 µL from the acceptor well on a plate reader between 230 and 700 nm. The Papp (cm/s) values for compounds were determined by normalizing to the compound absorbance at equilibrium using the peak absorbance point for each compound, buffer volume, incubation time, and membrane porosity. Two or more replicate assays were conducted on different days.

[4] = pH 7.4, previously published compounds
[5] = pH 7.4, previously published compound
[6] = pH 7.4, HepDES19 cells, 72 h, (+) polarity DNA strand, pH 7.4, read-out: EC50
[7] = pH 7.4, DMEM-F12 with 10% FBS, 1% DMSO, upper limit 200 µM, read-out: Solubility Limit
[8] = pH 7.4, read-out: Solubility Limit Interpretation
[9] = pH 7.4, 200 µM, 2 h, read-out: Papp
[10] = pH 7.4, read-out: Papp Interpretation
[11] = experimental potencies of the E/Z mixture, read-out: EC50 mix
[12] = pH 7.4, previously published compound, Table 1
[13] = Figure 1, earlier HBV RNase H inhibitors

Row | SMILES | EC50 [1, 4] [µM] | EC50 [2, 6] [µM] | CC50 at 72 h (MTS cytotoxicity assay) [µM] | solubility (Solubility limit assay; [7]) [µM] | solubility (Solubility limit assay; [8]) [µM] | Papp at 2 h, 200 µM [3, 9] [×10⁻⁶ cm/s] | Papp at 2 h, 200 µM [3, 10] [×10⁻⁶ cm/s] | further results
1 | C/C(=N\OCc1ccccc1Cl)c1c(C)cc(=O)n(O)c1O [Compound 49] | 0.24 ± 0.09 |  |  |  |  |  |  | 
2 | C/C(=N\OCc1cccc(F)c1)c1c(C)cc(=O)n(O)c1O [Compound 53] | 0.06 ± 0.01 |  |  |  |  |  |  | CC50 (HepDES19 cells; [4]): 73.9 ± 28.6 µM
3 | C/C(=N\OCc1ccccc1F)c1c(C)cc(=O)n(O)c1O [Compound 52] |  |  |  |  |  |  |  | EC50 [1, 5]: 0.32 ± 0.2 µM; CC50 (HepDES19 cells; [5]): 90 ± 6 µM
4 | C/C(=N\OCc1cccc(Br)c1)c1c(C)cc(=O)n(O)c1O [Compound 47] | 0.52 ± 0.33 |  |  |  |  |  |  | CC50 (HepDES19 cells; [4]): 78.5 ± 32.4 µM
5 | CC(=NCc1ccccc1Cl)c1c(C)cc(=O)n(O)c1O [Compound 36, 5-(1-((2-chlorobenzyl)imino)ethyl)-1,6-dihydroxy-4-methylpyridin-2(1H)-one] |  | 2.77 ± 0.8 | 52.7 ± 29.3 | 167 (≈ 51.1 µg/mL) | > 100 | 3.04 | > 1 | 
6 | CC(=NOCc1ccc(Cl)c(Cl)c1)c1c(C)cc(=O)n(O)c1O [Compound 30, 5-(1-(((3,4-dichlorobenzyl)oxy)imino)ethyl)-1,6-dihydroxy-4-methylpyridin-2(1H)-one] |  | 1.77 ± 0.7 | 49.7 ± 16.4 | > 200 | > 100 | 1.59 | > 1 | EC50 [2, 11]: 1.77 ± 0.7 µM
7 | CC(=NCc1cccc(F)c1)c1c(C)cc(=O)n(O)c1O [Compound 39, 5-(1-((3-fluorobenzyl)imino)ethyl)-1,6-dihydroxy-4-methylpyridin-2(1H)-one] |  | 27.6 ± 3.7 | 19.3 ± 10.5 | > 200 | > 100 | 1.89 | > 1 | 
8 | CC(=NCc1ccc(Cl)cc1)c1c(C)cc(=O)n(O)c1O [Compound 38, 5-(1-((4-chlorobenzyl)imino)ethyl)-1,6-dihydroxy-4-methylpyridin-2(1H)-one] |  | 18.9 ± 8.4 | 22.9 ± 7 | > 200 | > 100 | 3.07 | > 1 | 
9 | CC(=NOCc1ccccc1I)c1c(C)cc(=O)n(O)c1O [Compound 32, 1,6-dihydroxy-5-(1-(((2-iodobenzyl)oxy)imino)ethyl)-4-methylpyridin-2(1H)-one] |  | 1.77 ± 0.5 | 54.1 ± 13.7 | 100 (≈ 41.4 µg/mL) | > 100 | 3.29 | > 1 | EC50 [2, 11]: 1.77 ± 0.5 µM
10 | CC(=NCc1ccc(F)cc1)c1c(C)cc(=O)n(O)c1O [Compound 40, 5-(1-((4-fluorobenzyl)imino)ethyl)-1,6-dihydroxy-4-methylpyridin-2(1H)-one] |  | 16.5 ± 3.5 | 15.4 ± 7.4 | > 200 | > 100 | 1.1 | > 1 | 
11 | C/C(=N\OCc1ccc(Br)cc1)c1c(C)cc(=O)n(O)c1O [Compound 48] | 1.13 ± 0.19 |  |  |  |  |  |  | CC50 (HepDES19 cells; [4]): 76.7 ± 30.3 µM
12 | C/C(=N\c1ccccc1N)c1c(C)cc(=O)n(O)c1O [Compound 54] |  |  |  |  |  |  |  | EC50 [1, 12]: 0.69 ± 0.2 µM; CC50 (HepDES19 cells; [12]): 15 ± 7 µM
13 | CC(=NCc1cccc(Cl)c1)c1c(C)cc(=O)n(O)c1O [Compound 37, 5-(1-((3-chlorobenzyl)imino)ethyl)-1,6-dihydroxy-4-methylpyridin-2(1H)-one] |  | 4.73 ± 4.4 | 34 ± 23 | > 200 | > 100 | 5.41 | > 1 | 
14 | C/C(=N\OCc1ccc(Cl)cc1)c1c(C)cc(=O)n(O)c1O [Compound 51] | 0.36 ± 0.24 |  |  |  |  |  |  | CC50 (HepDES19 cells; [4]): 46.6 ± 13.6 µM
15 | COc1ccc(CON=C(C)c2c(C)cc(=O)n(O)c2O)cc1 [A24] |  |  |  |  |  |  |  | EC50 [1, 13]: 0.29 µM; CC50 (HepDES19 cells; [13]): 102 µM
16 | CC(=NCc1ccc(Br)cc1)c1c(C)cc(=O)n(O)c1O [Compound 35, 5-(1-((4-bromobenzyl)imino)ethyl)-1,6-dihydroxy-4-methylpyridin-2(1H)-one] |  | 15 ± 10.7 | 44.4 ± 34.4 | > 200 | > 100 | 3.15 | > 1 | 
17 | CC(=Nc1c(F)cccc1F)c1c(C)cc(=O)n(O)c1O [Compound 28, 5-(1-((2,6-difluorophenyl)imino)ethyl)-1,6-dihydroxy-4-methylpyridin-2(1H)-one] |  | 2.73 ± 1 | 52.6 ± 20.5 | > 200 | > 100 | 2.48 | > 1 | 
18 | CC(=NCc1ccc(F)c(F)c1)c1c(C)cc(=O)n(O)c1O [Compound 41, 5-(1-((3,4-difluorobenzyl)imino)ethyl)-1,6-dihydroxy-4-methylpyridin-2(1H)-one] |  | 10.7 ± 0.5 | 23.9 ± 11.7 | > 200 | > 100 | 2.54 | > 1 | 
19 | C/C(=N\OCc1cccc(Cl)c1)c1c(C)cc(=O)n(O)c1O [Compound 50] | 1.35 ± 1.03 |  |  |  |  |  |  | CC50 (HepDES19 cells; [4]): 56.9 ± 31.1 µM
20 | CC(=Nc1ccc(F)cc1F)c1c(C)cc(=O)n(O)c1O [Compound 26, 5-(1-((2,4-difluorophenyl)imino)ethyl)-1,6-dihydroxy-4-methylpyridin-2(1H)-one] |  | 2.83 ± 1.1 | 54.1 ± 27.7 | > 200 | > 100 | 3.81 | > 1 | 
21 | CC(=NCCOc1ccc(Cl)cc1)c1c(C)cc(=O)n(O)c1O [Compound 43, 5-(1-((2-(4-chlorophenoxy)ethyl)imino)ethyl)-1,6-dihydroxy-4-methylpyridin-2(1H)-one] |  | 17.2 ± 6.6 | 30.1 ± 12.5 | > 200 | > 100 | 0.86 | < 1 | 
22 | CC(=NCc1cccc(Br)c1)c1c(C)cc(=O)n(O)c1O [Compound 34, 5-(1-((3-bromobenzyl)imino)ethyl)-1,6-dihydroxy-4-methylpyridin-2(1H)-one] |  | 13.6 ± 2.8 | 22.6 ± 16.7 | > 200 | > 100 | 1.11 | > 1 | 
23 | C/C(=N\OCc1ccccc1Br)c1c(C)cc(=O)n(O)c1O [Compound 46] | 2 ± 1.6 |  |  |  |  |  |  | CC50 (HepDES19 cells; [4]): 80.8 ± 27.5 µM
